{"source": "patent US20140378408A1", "about": "“NUCLEOSIDE 5'-PHOSPHOROTHIOATE ANALOGUES AND USES THEREOF” (BAR-ILAN UNIVERSITY, an Israeli University, priority 2012, published 2014)", "key": {"human NTPDase3": {"target": "T1, human NTPDase3 (Homo sapiens, UniProt O75355)", "T1 sequence (O75355 1-529)": "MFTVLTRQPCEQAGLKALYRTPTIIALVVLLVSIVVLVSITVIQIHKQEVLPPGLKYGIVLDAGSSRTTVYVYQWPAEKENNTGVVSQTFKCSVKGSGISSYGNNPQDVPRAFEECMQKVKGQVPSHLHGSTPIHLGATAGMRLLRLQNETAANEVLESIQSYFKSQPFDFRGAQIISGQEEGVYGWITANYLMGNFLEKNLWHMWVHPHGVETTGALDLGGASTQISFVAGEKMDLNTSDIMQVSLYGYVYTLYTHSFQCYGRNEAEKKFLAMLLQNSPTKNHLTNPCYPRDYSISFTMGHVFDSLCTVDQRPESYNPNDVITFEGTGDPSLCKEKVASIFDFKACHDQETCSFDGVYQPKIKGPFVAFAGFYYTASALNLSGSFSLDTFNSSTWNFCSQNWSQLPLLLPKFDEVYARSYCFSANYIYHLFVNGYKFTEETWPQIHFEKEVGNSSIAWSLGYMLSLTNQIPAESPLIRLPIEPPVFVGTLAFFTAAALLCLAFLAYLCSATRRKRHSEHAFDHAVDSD", "assay": "Inhibition of NTPDase3 activity", "conditions": "for effect on human NTPDase3 activity: Table 5, ATP and analogue 100 μM, 100% activity = ATP alone; for inhibition of the hydrolysis of ATP by NTPDase3: analogue and ATP 100 μM"}, "human NPP1": {"target": "T2, human NPP1 (Homo sapiens, UniProt P22413)", "T2 construct": "made in house; host or cells: COS-7 cells (transfected; protein extract / cell lysate)", "T2 sequence (P22413 1-925)": "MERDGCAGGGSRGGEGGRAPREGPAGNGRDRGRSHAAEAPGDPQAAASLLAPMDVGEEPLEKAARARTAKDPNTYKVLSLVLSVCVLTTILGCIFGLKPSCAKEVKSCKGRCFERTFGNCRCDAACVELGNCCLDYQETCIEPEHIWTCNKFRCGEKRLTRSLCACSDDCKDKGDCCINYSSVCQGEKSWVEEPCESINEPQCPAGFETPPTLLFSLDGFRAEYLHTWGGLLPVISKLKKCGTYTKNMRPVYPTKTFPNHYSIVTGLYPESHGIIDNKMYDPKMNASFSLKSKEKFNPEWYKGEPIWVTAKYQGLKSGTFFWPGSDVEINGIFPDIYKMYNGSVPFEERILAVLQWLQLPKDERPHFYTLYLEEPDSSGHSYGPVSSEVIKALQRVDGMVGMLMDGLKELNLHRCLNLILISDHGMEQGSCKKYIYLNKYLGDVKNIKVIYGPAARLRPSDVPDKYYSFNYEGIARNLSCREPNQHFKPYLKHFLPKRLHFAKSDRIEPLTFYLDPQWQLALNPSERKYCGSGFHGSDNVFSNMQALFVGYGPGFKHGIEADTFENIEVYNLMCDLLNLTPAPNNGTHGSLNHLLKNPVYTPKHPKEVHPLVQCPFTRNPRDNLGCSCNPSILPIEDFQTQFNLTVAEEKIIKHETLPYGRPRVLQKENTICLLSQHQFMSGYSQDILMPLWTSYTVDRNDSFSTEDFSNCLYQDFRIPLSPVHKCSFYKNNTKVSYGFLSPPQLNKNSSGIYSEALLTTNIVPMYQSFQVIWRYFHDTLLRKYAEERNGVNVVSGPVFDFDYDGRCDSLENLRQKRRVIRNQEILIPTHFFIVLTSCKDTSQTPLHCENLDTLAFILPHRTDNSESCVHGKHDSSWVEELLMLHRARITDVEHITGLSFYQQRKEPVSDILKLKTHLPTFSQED", "assay": "Inhibition of NPP1 activity", "assay_type": "biochemical", "conditions": "for inhibition of pnp-TMP hydrolysis by NPP1: analogue and pnp-TMP 100 μM; for type of inhibition: Dixon and Cornish-Bowden methods"}, "human NTPDase2": {"target": "T3, human NTPDase2 (Homo sapiens, UniProt Q9Y5L3)", "T3 construct": "made in house; host or cells: COS-7 cells (transfected; protein extract)", "T3 sequence (Q9Y5L3 1-495)": "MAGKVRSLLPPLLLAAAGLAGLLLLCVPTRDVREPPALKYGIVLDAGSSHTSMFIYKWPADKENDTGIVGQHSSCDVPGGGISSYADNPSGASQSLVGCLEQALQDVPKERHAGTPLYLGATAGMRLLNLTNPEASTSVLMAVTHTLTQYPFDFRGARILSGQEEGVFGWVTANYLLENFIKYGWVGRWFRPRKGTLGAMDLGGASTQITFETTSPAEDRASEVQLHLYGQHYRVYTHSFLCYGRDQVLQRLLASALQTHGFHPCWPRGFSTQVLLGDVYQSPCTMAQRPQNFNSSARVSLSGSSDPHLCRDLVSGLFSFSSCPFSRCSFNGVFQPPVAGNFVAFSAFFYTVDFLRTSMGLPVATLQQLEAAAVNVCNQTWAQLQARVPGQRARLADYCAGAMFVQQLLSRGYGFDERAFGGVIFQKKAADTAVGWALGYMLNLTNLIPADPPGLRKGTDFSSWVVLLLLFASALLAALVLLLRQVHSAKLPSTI", "assay": "Inhibition of NTPDase2 activity", "assay_type": "biochemical", "conditions": "for effect on human NTPDase2 activity: Table 5, ATP and analogue 100 μM, 100% activity = ATP alone; for inhibition of the hydrolysis of ATP by NTPDase2: analogue and ATP 100 μM"}}, "note": "Like-named read-outs stand apart in the source and are kept apart here."}
{"compound": "Nc1ncnc2c1ncn2[C@@H]1O[C@H](COP(O)(=S)OP(=O)(O)C(Cl)(Cl)P(=O)(O)O)[C@@H](O)[C@H]1O", "note": "(single isomer, unassigned; isomer a) [APPCCl2P-α-S (isomer A), adenosine 5′-[Pα-thio]-β,γ-(dichloromethylene)triphosphate]", "values": [{"measurement": "effect on human NTPDase3 activity", "setting": "human NTPDase3; listed as APPCCl2P-α-S A", "result": "21.8 ± 1.0", "unit": "%"}, {"measurement": "inhibition of the hydrolysis of ATP by NTPDase3", "setting": "human NTPDase3", "result": "did not interfere"}, {"measurement": "IC50", "setting": "human NPP1; NPP1, text, read-out: IC50", "result": 600, "unit": "nM"}, {"measurement": "Ki", "setting": "human NPP1; NPP1, text, read-out: Ki", "result": 685, "unit": "nM"}, {"measurement": "effect on human NTPDase2 activity", "setting": "human NTPDase2; listed as APPCCl2P-α-S A", "result": "11.2 ± 0.5", "unit": "%"}, {"measurement": "inhibition of the hydrolysis of ATP by NTPDase2", "setting": "human NTPDase2", "result": "did not interfere"}]}
{"compound": "adenosine-5′-tetrathiobisphosphonate", "values": [{"measurement": "inhibition of pnp-TMP hydrolysis by NPP1", "setting": "human NPP1", "result": 4, "unit": "%"}, {"measurement": "inhibition of the hydrolysis of ATP by NTPDase2", "setting": "human NTPDase2", "result": 42, "unit": "%"}]}
{"compound": "Nc1ncnc2c1ncn2[C@@H]1O[C@H](COP(O)(=S)OP(=O)(O)CP(=O)(O)O)[C@@H](O)[C@H]1O", "note": "(single isomer, unassigned; isomer b) [APPCP-α-S (isomer B), adenosine 5′-[Pα-thio]-β,γ-methylenetriphosphate]", "values": [{"measurement": "effect on human NTPDase3 activity", "setting": "human NTPDase3; listed as APPCP-α-S B", "result": "18.7 ± 0.8", "unit": "%"}, {"measurement": "inhibition of the hydrolysis of ATP by NTPDase3", "setting": "human NTPDase3", "result": "did not interfere"}, {"measurement": "Ki", "setting": "human NPP1; pNP-TMP as substrate, Dixon plot, listed as APPCP-α-S B, read-out: Ki", "result": "1300 ± 10", "unit": "nM"}, {"measurement": "effect on human NTPDase2 activity", "setting": "human NTPDase2; listed as APPCP-α-S B", "result": "9.9 ± 0.4", "unit": "%"}, {"measurement": "inhibition of the hydrolysis of ATP by NTPDase2", "setting": "human NTPDase2", "result": "did not interfere"}]}
{"compound": "Nc1ncnc2c1ncn2[C@@H]1O[C@H](COP(O)(=S)OP(=O)(O)C(Cl)(Cl)P(=O)(O)O)[C@@H](O)[C@H]1O", "note": "(single isomer, unassigned) [APPCCl2P-α-S, adenosine 5′-[Pα-thio]-β,γ-(dichloromethylene)triphosphate]", "values": [{"measurement": "IC50", "setting": "human NPP1", "result": 390, "unit": "nM"}, {"measurement": "Ki", "setting": "human NPP1", "result": 20, "unit": "nM"}, {"measurement": "type of inhibition", "setting": "human NPP1", "result": "mixed type inhibition, predominantly competitive"}]}
{"compound": "Nc1ncnc2c1ncn2[C@@H]1O[C@H](COP(O)(=S)OP(=O)(O)C(Cl)(Cl)P(=O)(O)O)[C@@H](O)[C@H]1O", "note": "(single isomer, unassigned; isomer b) [APPCCl2P-α-S (isomer B), adenosine 5′-[Pα-thio]-β,γ-(dichloromethylene)triphosphate]", "values": [{"measurement": "effect on human NTPDase3 activity", "setting": "human NTPDase3; listed as APPCCl2P-α-S B", "result": "24.0 ± 1.2", "unit": "%"}, {"measurement": "inhibition of the hydrolysis of ATP by NTPDase3", "setting": "human NTPDase3", "result": "did not interfere"}, {"measurement": "Ki", "setting": "human NPP1; pNP-TMP as substrate, Dixon plot, read-out: Ki", "result": "15200 ± 100", "unit": "nM"}, {"measurement": "effect on human NTPDase2 activity", "setting": "human NTPDase2; listed as APPCCl2P-α-S B", "result": "12.7 ± 0.5", "unit": "%"}, {"measurement": "inhibition of the hydrolysis of ATP by NTPDase2", "setting": "human NTPDase2", "result": "did not interfere"}]}
{"compound": "Nc1ncnc2c1ncn2[C@@H]1O[C@H](COP(=O)(O)OP(O)(O)=S)[C@@H](O)[C@H]1O", "note": "[ADP-β-S, adenosine 5′-[β-thio]diphosphate, reference compound]", "values": [{"measurement": "inhibition of the hydrolysis of ATP by NTPDase3", "setting": "human NTPDase3", "result": "less than 50%"}, {"measurement": "inhibition of pnp-TMP hydrolysis by NPP1", "setting": "human NPP1", "result": 95, "unit": "%"}, {"measurement": "inhibition of the hydrolysis of ATP by NTPDase2", "setting": "human NTPDase2", "result": "less than 50%"}]}
{"compound": "di-adenosine-5′,5″-tetrathiobisphosphonate", "values": [{"measurement": "inhibition of the hydrolysis of ATP by NTPDase3", "setting": "human NTPDase3", "result": "5-20%"}, {"measurement": "inhibition of pnp-TMP hydrolysis by NPP1", "setting": "human NPP1", "result": "~60", "unit": "%"}, {"measurement": "inhibition of the hydrolysis of ATP by NTPDase2", "setting": "human NTPDase2", "result": "5-20%"}]}
{"compound": "Nc1ncnc2c1ncn2[C@@H]1O[C@H](COP(O)(=S)OP(=O)(O)CP(=O)(O)O)[C@@H](O)[C@H]1O", "note": "(single isomer, unassigned; isomer a) [APPCP-α-S (isomer A), adenosine 5′-[Pα-thio]-β,γ-methylenetriphosphate]", "values": [{"measurement": "effect on human NTPDase3 activity", "setting": "human NTPDase3; listed as APPCP-α-S A", "result": "40.2 ± 2.0", "unit": "%"}, {"measurement": "inhibition of the hydrolysis of ATP by NTPDase3", "setting": "human NTPDase3", "result": "did not interfere"}, {"measurement": "Ki", "setting": "human NPP1; dissociation constant for EIS complex, Cornish-Bowden plot, listed as APPCP-α-S A, read-out: Ki′", "result": "4500 ± 3", "unit": "nM"}, {"measurement": "Ki", "setting": "human NPP1; pNP-TMP as substrate, Dixon plot, listed as APPCP-α-S A, read-out: Ki", "result": "4500 ± 30", "unit": "nM"}, {"measurement": "effect on human NTPDase2 activity", "setting": "human NTPDase2; listed as APPCP-α-S A", "result": "16.3 ± 0.6", "unit": "%"}, {"measurement": "inhibition of the hydrolysis of ATP by NTPDase2", "setting": "human NTPDase2", "result": "did not interfere"}]}
{"compound": "Nc1ncnc2c1ncn2[C@@H]1O[C@H](COP(=O)(O)CP(=O)(O)OP(O)(O)=S)[C@@H](O)[C@H]1O", "note": "[APCPP-γ-S, adenosine 5′-[Pγ-thio]-α,β-methylenetriphosphate]", "values": [{"measurement": "effect on human NTPDase3 activity", "setting": "human NTPDase3", "result": "26.8 ± 1.1", "unit": "%"}, {"measurement": "Ki", "setting": "human NPP1", "result": "< 9000", "unit": "nM"}, {"measurement": "type of inhibition", "setting": "human NPP1", "result": "mixed type inhibition, predominantly competitive"}, {"measurement": "Ki", "setting": "human NPP1; NPP1, text, read-out: Ki", "result": 20, "unit": "nM"}, {"measurement": "effect on human NTPDase2 activity", "setting": "human NTPDase2", "result": "15.4 ± 0.7", "unit": "%"}]}
